Laboratory results from paper PMC6150216, “Oleanane-Type Saponins from the Roots of Ligulariopsis shichuana and Their α-Glucosidase Inhibitory Activities” (Molecules : A Journal of Synthetic Chemistry and Natural …, 2017).
“Also recorded” adds a separate entry of the source.

How the values were obtained:
yeast α-glucosidase = experiment: α-Glucosidase inhibitory activity assay; type: biochemical; settings: for IC50: compound concentration that inhibits α-glucosidase activity by 50%, acarbose positive control, read-out: IC50 against α-glucosidase; for α-glucosidase inhibitory activity (in words): qualitative statement
Excerpt: α-Glucosidase inhibitory activity was examined by the method described by Omar et al..

glucose-loaded rats = test system: glucose-loaded rats; parameters: method as in PMID 11237187; settings: cited from earlier work

Row | Structure (SMILES) | IC50 (yeast α-glucosidase) | α-glucosidase inhibitory activity (in words) (yeast α-glucosidase) | effect on the incensement of serum glucose levels (glucose-loaded rats)
1 | COC(=O)[C@H]1O[C@@H](O[C@H]2CC[C@]3(C)[C@H]4CC=C5[C@@H]6CC(C)(C)CC[C@]6(CO)[C@@H](O)C[C@@]5(C)[C@]4(C)CC[C@H]3C2(C)C)[C@H](O)[C@@H](O)[C@@H]1O [Compound 5, Ligushicoside E] | 154 ± 11.2 µM |  | 
2 | COC(=O)[C@H]1O[C@@H](O[C@H]2CC[C@]3(C)[C@H]4CC=C5[C@@H]6CC(C)(C)CC[C@]6(C=O)[C@@H](O)C[C@@]5(C)[C@]4(C)CC[C@H]3C2(C)C)[C@H](O)[C@@H](O)[C@@H]1O [Compound 2, Ligushicoside B] | 37.9 ± 3.6 µM | excellent inhibitory activities; also recorded: excellent inhibitory activity | 
3 | CC1(C)CC[C@]2(C(=O)O)CC[C@]3(C)C(=CC[C@@H]4[C@@]5(C)CC[C@H](O[C@@H]6O[C@H](C(=O)O)[C@@H](O)[C@H](O)[C@H]6O)C(C)(C)[C@@H]5CC[C@]43C)[C@@H]2C1 [Compound 7, calenduloside E] | 57.6 ± 6.8 µM |  | significant effects; also recorded: strongly inhibited
4 | CC1(C)CC[C@]2(CO)[C@@H](O)C[C@]3(C)C(=CC[C@@H]4[C@@]5(C)CC[C@H](O[C@@H]6O[C@H](C(=O)O)[C@@H](O)[C@H](O)[C@H]6O)C(C)(C)[C@@H]5CC[C@]43C)[C@@H]2C1 [Compound 6, longispinogenin 3-O-β-D-glucuronopyranoside] | 42.6 ± 5.9 µM |  | 
5 | CC1(C)CC[C@]2(C=O)[C@@H](O)C[C@]3(C)C(=CC[C@@H]4[C@@]5(C)CC[C@H](O[C@@H]6O[C@H](C(=O)O)[C@@H](O)[C@H](O)[C@H]6O)C(C)(C)[C@@H]5CC[C@]43C)[C@@H]2C1 [Compound 1, Ligushicoside A] | 18.7 ± 1.7 µM | excellent inhibitory activities; also recorded: excellent inhibitory activity | 

Continued by falling IC50 (yeast α-glucosidase), values first:

Row | IC50 (yeast α-glucosidase) | Structure (SMILES) | α-glucosidase inhibitory activity (in words) (yeast α-glucosidase) | effect on the incensement of serum glucose levels (glucose-loaded rats)
6 | 134 ± 3.3 µM | COC(=O)[C@H]1O[C@@H](O[C@H]2CC[C@]3(C)[C@H]4CC=C5[C@@H]6CC(C)(C)CC[C@]6(C(=O)O)CC[C@@]5(C)[C@]4(C)CC[C@H]3C2(C)C)[C@H](O)[C@@H](O)[C@@H]1O [Compound 8, calenduloside E 6′-methyl ester] |  | significant effects
7 | 105 ± 4.3 µM | COC(=O)[C@H]1O[C@@H](O[C@H]2CC[C@]3(C)[C@H]4CC=C5[C@@H]6CC(C)(C)CC[C@]6(C)[C@@H](O)C[C@@]5(C)[C@]4(C)C[C@@H](O)[C@H]3C2(C)C)[C@H](O)[C@@H](O)[C@@H]1O [Compound 3, Ligushicoside C] |  | 
8 | 89.7 ± 5.1 µM | COC(=O)[C@H]1O[C@@H](O[C@H]2CC[C@]3(C)[C@H]4CC=C5[C@@H]6CC(C)(C)CC[C@]6(CO)[C@@H](O)C[C@@]5(C)[C@]4(C)C[C@@H](O)[C@H]3C2(C)C)[C@H](O)[C@@H](O)[C@@H]1O [Compound 4, Ligushicoside D] |  | 
